Assay results published in US8735445B2, “Inhibitors of 15-hydroxyprostaglandin dehydrogenase for stimulating pigmentation of the skin or skin appendages” (L'Oreal, priority 2003, dated 2014).
Read-outs that look alike come from different tables or passages of the source.

How the values were obtained:
[1] = target: T1, 15-PGDH (Homo sapiens, UniProt P15428); assay: 15-PGDH test (spectrophotometric, NADH at 340 nm, PGE2 substrate); type: biochemical; conditions: Example I-5
T1 construct: GST (from vector pGEX-4T3); made in house; host or cells: E. coli BL21 DE3plys
T1 sequence (P15428 1-266): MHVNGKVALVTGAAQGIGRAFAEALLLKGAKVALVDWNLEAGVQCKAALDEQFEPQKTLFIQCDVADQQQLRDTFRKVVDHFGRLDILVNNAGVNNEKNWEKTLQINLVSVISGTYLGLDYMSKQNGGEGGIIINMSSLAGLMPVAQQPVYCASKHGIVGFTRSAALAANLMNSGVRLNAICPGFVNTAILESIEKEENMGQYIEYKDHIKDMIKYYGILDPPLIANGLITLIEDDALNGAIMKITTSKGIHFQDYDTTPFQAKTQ
Method: The enzyme obtained is at a concentration of 0.3 mg/ml and is blocked at −80° C. This suspension is thawed and stored in ice.
A 100 mM Tris buffer, pH—7.4, containing 0.1 mM of dithiothreitol (D5545, Sigma-Aldrich, L'isle D'Abeau Chesne, BP 701, 38297, Saint Quentin Fallavier), 1.5 mM of 13-NAD (N6522, Sigma-Aldrich, L'isle D'Abeau Chesne, BP 701, 38297, Saint Quentin Fallavier) and 50 μM of prostaglandin E2 (P4172, Sigma-Aldrich, L'isle D'Abeau Chesne, BP 701, 38297, Saint Quentin Fallavier) is prepared.
0.965 ml of this buffer (brought to 37° C. beforehand) is placed in the cuvette of a spectrophotomer (Perkin-Elmer, Lambda 2) thermostated at 37° C., the measuring wavelength of which is set at 340 nm. 0.035 ml of enzyme suspension at 37° C. is placed in the cuvette concomitantly with the recording (increase in optical density at 340 nm).
The maximum reaction rate is recorded.
The assay values (molecules) are compared with the control value (without molecule), and the results are expressed as % of the control value.
The assay is carried out as described in example 4a.
The methodology is that described in example 1-5.

[2] = target: T2, PGF synthase (PGFS) (Homo sapiens, UniProt P42330); assay: Test on PGFS (PGF synthase; phenanthrenequinone/NADPH, 340 nm); type: biochemical
T2 sequence (P42330 1-323): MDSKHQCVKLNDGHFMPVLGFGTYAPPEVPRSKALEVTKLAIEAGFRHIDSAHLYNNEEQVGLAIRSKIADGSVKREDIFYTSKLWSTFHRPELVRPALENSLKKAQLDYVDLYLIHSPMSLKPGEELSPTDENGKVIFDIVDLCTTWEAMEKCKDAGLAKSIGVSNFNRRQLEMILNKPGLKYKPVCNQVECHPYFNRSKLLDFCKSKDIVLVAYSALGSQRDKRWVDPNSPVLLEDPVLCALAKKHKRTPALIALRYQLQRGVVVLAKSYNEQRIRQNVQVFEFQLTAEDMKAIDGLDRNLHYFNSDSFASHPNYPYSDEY
Method: The PGF synthase enzyme is obtained as described in FR-A-02/05067, at a concentration of 0.5 mg/ml, in suspension in an appropriate medium, and is blocked at −80° C. For the needs of the test, this suspension is thawed and stored in ice.
Moreover, a 100 mM Tris buffer, pH=6.5, containing 20 μM of 9.10-phenanthrenequinone* (P2896, Sigma-Aldrich, L′ isle D'Abeau Chesne, BP 701, 38297, Saint Quentin Fallavier) and 100 μM of β-NAPDH(N1630, Sigma-Aldrich, L'isle D'Abeau Chesne, BP 701, 38297, Saint Quentin Fallavier), is prepared in a brown bottle (exclusion of light).
*A stock solution having a titer of 1 mM is prepared in absolute ethanol, brought to 40° C.; the flask is placed in an ultrasound tank so as to facilitate solubilization of the product.
0.950 ml of this buffer (brought beforehand to 37° C.) is introduced into the cuvette of a spectrophotometer (Perkin-Elmer, Lambda 2) thermostatically controlled at 37° C., the measuring wavelength of which is set at 340 nm. 0.05 ml of enzymatic suspension at 37° C. is introduced into the cuvette concomitantly with the recording (corresponding to a decrease in optical density at 340 nm). The maximum reaction rate is recorded. […]

[3] = test system: melanocyte line MeWo; assay: Protection of PGF2α in melanocyte line MeWo; type: cell-based; conditions: 4 hours, MeWo melanocytes
Method: An ampoule of Mewo melanocytes (American type cell collection, HTB-65) is amplified (75 cm^2 flask, Costar), in DMEM medium (Gibco)+10% fetal calf serum+2 mM of L-glutamine+1% of antibiotics (Gibco). After confluence, these cells (48 hours to 72 hours) are resuspended in this same culture medium, after the action of trypsin (according to a procedure conventionally used in cell culture), in a proportion of 600 000 cells per ml.
200 μl of this suspension are introduced into n times 6 wells (n being the total number of assays, i.e., x molecules at 2 concentrations) of a 96-well plate (Costar). The plate is placed in an incubator at 37° C. under 5% CO2.
Preparation, in DMSO of the 1000× stock solutions of the active agents to be evaluated (i.e., 5 and 25 mM).
Removal of the supernatants from the cultures previously prepared (96-well plate), and rinsing with 100 μl/well of DMEM medium+additives (see above description) preheated to 37° C.
Introduction of 100 μl/well of DMEM medium (+additives) containing 0.1 μl of DMSO (control) or 0.1 μl of the stock solution of the active agent to be evaluated (there are 6 assay wells per molecule and per concentration).
Practically 1 ml of solution is prepared for each of the active agents (and per concentration) to be tested, therefore 1 ml of medium+1 μl of DMSO (control) or of 1000× stock solution.
The plate is again placed in an incubator at 37° C. under 5% CO2 for 4 hours, and then a PGF2α assay is carried out on 50 μl of each of the supernatants (of the various assays) by means of an immunoenzymatic kit (according to the supplier's recommendations (PGF2α, EIA kit, ref. 516011, Cayman)).
Results (as % of the amount of PGF2α measured under the control conditions): […]

## O=C1NC(=O)C(=Cc2ccc(-c3ccc(C(=O)O)cc3)o2)S1 [Compound 1 of example I, 4-{5-[(2,4-dioxo-1,3-thiazolidin-5-ylidene)methyl]-2-furyl}benzoic acid]
[1]; selectivity for 15-PGDH with respect to PGFS
  IC50fs/IC50dh ratio: greater than 13

## O=C1NC(=O)/C(=C/c2ccc(-c3ccc(C(=O)O)cc3)o2)S1 [Compound 1, 4-{5-[(2,4-dioxo-1,3-thiazolidin-5-ylidene)methyl]-2-furyl}benzoic acid]
[1]; read-out: Inhibition 15-PGDH IC50dh
  IC50: 0.3 µM
[2]; Example I-5, read-out: Inhibition of PGFS IC50fs
  IC50: 4 µM

## O=C1NC(=O)/C(=C/c2ccc(-c3ccc(C(=O)O)cc3)o2)S1 [Compound 1a of example I]
[3]; 5 μM
  % of the amount of PGF2α measured under the control conditions: +67%
[3]; 25 μM
  % of the amount of PGF2α measured under the control conditions: +51%

## COc1ccccc1/C=C(\C#N)c1nn(-c2ccccc2)c(N)c1C#N [Compound 9 of example II]
[2]; Example II-2, read-out: Inhibition of PGF synthase IC50fs
  IC50: > 50 µM

## COC(=O)c1cc(/N=N/c2ccc(O)c(CC(=O)O)c2)cc(C(=O)OC)c1 [PhCL28A, reference compound]
[3]; 5 μM
  % of the amount of PGF2α measured under the control conditions: +43%
[3]; 25 μM
  % of the amount of PGF2α measured under the control conditions: +147%
